Source: article PMC10904834 (Nature Communications, 2024)

Experiments:
[1] = target: T1, MoATG4 (Pyricularia oryzae, UniProt Q523C3); settings: 10 uM compound; RT, 10 min preincubation; thiol-reactive, proposed covalent
T1 construct: gene ATG4

[2] = target: T1, MoATG4; assay: biochemical
[3] = target: T2, BcATG4 (Botrytis cinerea, UniProt A6SDQ3); assay: isothermal titration calorimetry
T2 construct: gene atg4

[4] = target: T2, BcATG4

T1 sequence (Q523C3 whole entry, looked up): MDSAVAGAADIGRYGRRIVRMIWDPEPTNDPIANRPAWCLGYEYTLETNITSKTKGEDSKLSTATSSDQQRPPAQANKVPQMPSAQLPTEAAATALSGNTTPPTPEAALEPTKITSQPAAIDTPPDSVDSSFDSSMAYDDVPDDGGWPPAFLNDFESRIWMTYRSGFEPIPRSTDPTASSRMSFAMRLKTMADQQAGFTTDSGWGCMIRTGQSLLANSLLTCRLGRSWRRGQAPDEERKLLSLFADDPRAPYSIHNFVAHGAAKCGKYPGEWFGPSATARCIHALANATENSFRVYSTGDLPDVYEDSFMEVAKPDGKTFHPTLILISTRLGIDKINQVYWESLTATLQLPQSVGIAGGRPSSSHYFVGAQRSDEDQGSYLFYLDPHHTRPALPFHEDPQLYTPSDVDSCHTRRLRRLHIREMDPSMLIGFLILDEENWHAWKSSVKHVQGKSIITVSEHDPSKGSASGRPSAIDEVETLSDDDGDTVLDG
T2 sequence (A6SDQ3 whole entry): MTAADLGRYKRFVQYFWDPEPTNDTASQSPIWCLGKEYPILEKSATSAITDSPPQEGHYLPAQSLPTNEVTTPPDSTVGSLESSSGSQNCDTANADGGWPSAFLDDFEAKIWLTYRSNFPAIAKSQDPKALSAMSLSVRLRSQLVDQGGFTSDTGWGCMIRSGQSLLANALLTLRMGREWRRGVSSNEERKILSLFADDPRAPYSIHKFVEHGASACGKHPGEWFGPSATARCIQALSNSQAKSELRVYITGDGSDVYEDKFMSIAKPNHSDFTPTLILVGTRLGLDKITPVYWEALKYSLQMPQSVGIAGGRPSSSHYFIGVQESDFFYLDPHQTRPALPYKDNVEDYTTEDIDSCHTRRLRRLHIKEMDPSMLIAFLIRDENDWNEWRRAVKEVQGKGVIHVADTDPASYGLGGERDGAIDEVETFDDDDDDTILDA

SMILES: O=c1c2ccccc2[se]n1-c1ccccc1 [EB, ebselen]
- in vitro cleavage of Citrine-MoATG8-ShR sensor, western blot [1]: strong inhibition of the MoATG4-mediated cleavage of MoATG8 by EB and its analogs
- Kd [2]: 0.001 µM
- Kd [3]: 0.0034 µM
- IC50 [4]: 0.62 ± 0.03 µM

SMILES: O=C1c2ccccc2[Se](=O)N1c1ccccc1 (centres unmarked) [EO, ebselen oxide]
- in vitro cleavage of Citrine-MoATG8-ShR sensor, western blot [1]: strong inhibition of the MoATG4-mediated cleavage of MoATG8 by EB and its analogs
- IC50 [4]: 0.5 ± 0.03 µM

SMILES: Cc1ccc(-n2sc3ccccc3c2=O)cc1 [PT, 2-(4-methylphenyl)−1,2-benzisothiazol-3(2H)-one]
- in vitro cleavage of Citrine-MoATG8-ShR sensor, western blot [1]: strong inhibition of the MoATG4-mediated cleavage of MoATG8 by EB and its analogs
- IC50 [4]: 1.79 ± 0.24 µM
